Experimental data taken from US20250051307A1, “SALT OF 3,4-DIHYDROISOQUINOLINE COMPOUND AND USE THEREOF” (CSPC ZHONGQI PHARMACEUTICAL TECHNOLOGY(SHIJIAZHUANG) CO., …, priority 2021, published 2025).
Like-named read-outs stand apart in the source and are kept apart here. Marks after values point to notes of the source that are not given here.

Experiments:
[1] = Solid stability of crystal forms at high temperature (XRPD); type: physicochemical; conditions: 60° C., sealed, 7 days
Source text: (§1) The samples were subjected to X-ray powder diffraction to investigate the stability of the samples under different conditions, and the results are shown in the following table.

[2] = tested on: human acute monocytic leukemia cell line MV4-11; experiment: MV4-11 MTT cell growth inhibition; type: cell-based
Source text: The complete medium required for the culture of human acute monocytic leukemia cell line MV4-11 (Shanghai Cell Bank) for experiment was IMDM (CatNO. 12440-053, gibco) supplemented with 10% FBS (Cat NO. SA311.02, cellmax). […] The experiment reagents included dimethyl sulfoxide (Tianjin Kemiou Chemical Reagent Co., Ltd.) and MTT (THIAZOLYL BLUE TETRAZOLIUM BROMIDE, CAS. NO. 298-93-1, VWR). The control compound GSK3326595 for experiment was homemade or commercially available. The test compound was encapsulated and stored at 4° C.
Dimethyl sulfoxide was used as a vehicle to fully dissolve the test compound, thereby formulating a stock solution at a concentration of 5×10^−2 mol/L. The stock solution was stored at −20° C. With the complete medium as diluent, the test compound was subjected to gradient dilution to afford dilutions at different concentrations for standby application. In a 96-well culture plate, the suspension of the human acute monocytic leukemia cell line MV4-11 in the complete medium, at a volume of 100 μL/well (2×10^3 cells/well), was added. […] The OD value at 550 nm was measured with a microplate reader. […] The cell growth inhibition rate was calculated according to the following equation: […]
According to the inhibition rate at each concentration, the half maximal inhibitory concentration IC50 value was calculated using the SPSS software.

[3] = tested on: MV4-11 subcutaneous xenograft; experiment: MV4-11 subcutaneous xenograft model, in vivo efficacy; design: species or system NOD-SCID mice; conditions: for Body Weight Change (%): 11 consecutive days; for d9 Tumor Volume (mm^3): 9th day after administration; for d0 Tumor Volume (mm^3): before grouping for administration, 100 mg/kg group; for RTV (d9): d9 tumor volume/d0 tumor volume; for Tumor Weight: end of experiment; for Tumor Weight / Tumor weight inhibition rate (%): 11 days; for Tumor weight inhibition rate (%): vs vehicle group
Method: Experimental female NOD-SCID mice, SPF grade, 4 to 5 weeks, were purchased from Beijing Vital River Laboratory Animal Technology Co., Ltd. The mice were intraperitoneally injected with cyclophosphamide at a dose of 100 mg/kg one day before cell inoculation. The human acute monocytic leukemia cell line MV4-11 (1×10^7/0.1 ml/mouse) was subcutaneously inoculated into forelimb axilla of mice to establish a subcutaneous xenograft model. When the tumor volumes reached about 110 mm^3 (10 days after inoculation), the mice were equally grouped according to the tumor volume, with 5 mice in each group, i.e., vehicle group (2% DMSO+98% (0.2 g/mL) hydroxypropyl-β-cyclodextrin) and test drug groups. For the test drug groups, the dose of administration was 100 mg/kg, the dosing volume was 10 mL/kg, the dosing frequency was BID, the tumor diameters were measured twice per week, and the data was recorded. The mice were administered for 11 consecutive days. When the experiment ended, the tumors were dissected and weighed.
The body weight growth rate, the tumor volume, and the tumor weight inhibition rate were calculated according to the following equations: body weight growth rate=X(Wi-W0)/XW0×100%, where Wi denoted the body weight of a mouse in each test drug group on the n^th day, and W0 denoted the body weight of a mouse in each test drug group at the beginning of administration; tumor volume (V)=½× a× b^2, where a and b denoted the long diameter and the short diameter of a tumor, respectively; d0 denoted before grouping for administration, d9 denoted the 9th day after administration, relative tumor volume (RTV)=d9 tumor volume/d0 tumor volume; tumor weight inhibition rate=(tumor weightvehicle group−tumor weighttest drug group)/tumor weightvehicle group×100%.

[4] = Pharmacokinetic experiment in SD rats; type: in vivo; conditions: 25 mg/kg by gavage; for Cmax / Tmax / AUC(0-t): male, Sprague-Dawley (SD), rat, po, plasma; for AUC(0-t): read-out: AUC0-24h
Method: SD rats (male, 180 g to 200 g, Beijing Vital River Laboratory Animal Technology Co., Ltd.) were administered with the test compounds (solvent: 2% DMSO+98% (0.2 g/mL) hydroxypropyl-β-cyclodextrin, dosing volume: 5 mL/kg) by gavage. Blood was collected from the orbits of the rats at different points in time (0.25, 0.5, 1, 2, 4, 8, 24 h) after administration. The collected whole blood was anticoagulated with heparin sodium and centrifuged at 3000 g to obtain rat plasma samples, and methanol was added thereto to precipitate proteins. The drug concentration in rat plasma after administration was determined by HPLC-MS/MS method. A drug concentration-time curve was plotted and the pharmacokinetic parameters were calculated. Pharmacokinetic behaviors of the compounds after administration in rats were described by means of the parameter estimation of non-compartmental model based on statistical moment theory.

[5] = Solid stability of crystal forms under different humidity conditions (XRPD); type: physicochemical; conditions: 7 days
Source text: as §1

PRMT5 = PRMT5 (Homo sapiens (Human), UniProt O14744); experiment: Radiometric assay for PRMT5 based on FlashPlate technology; type: biochemical
Method: The radiometric assay for PRMT5 based on FlashPlate technology was adopted to determine IC50 of the test compound.
After dissolved in dimethyl sulfoxide respectively, the test compounds were added into an Echo Qualified 384-well plate and diluted to the desired concentrations. The diluted test compounds were transferred from the Echo Qualified 384-well plate to a 384-well reaction plate using an Echo 550 instrument, and dimethyl sulfoxide was transferred into both the control and blank wells. […] At a volume of 15 μL/well, the 1.67× enzyme solution was added into wells of the 384-well reaction plate. […] The reaction plate was centrifuged at 1000 rpm for 1 min, and incubated at room temperature for 15 min. […] From each well of the test plate, 25 μL was measured and transferred to Flashplate and left at room temperature for 1 h. Thereafter, the Flashplate was washed with 0.1% Tween-20 solution three times. Readings were taken with MicroBeta 2. The data was converted into the inhibition rate data. Inhibition rate=(conversion ratecontrol well−conversion ratecompound well)/(conversion ratecontrol well−conversion rateblank well)×100%.

[6] = Solubility determination in water and biological media; type: physicochemical; conditions: for solubility at 24 h: thermodynamic from solid, 37° C., solubility is in free state; for Solubility compared with the free base sample: water and FassIF media, vs Preparation Example 1
Source text: • FaSSIF: human fasted state simulated intestinal fluid; FeSSIF: human fed state simulated intestinal fluid; SGF: human fasted state simulated gastric fluid.

[7] = Long-term (three months) stability of Crystal Form I; type: physicochemical
[8] = vs positive control drug GSK3326595
[9] = FaSSIF (human fasted state simulated intestinal fluid), FassIF, read-out: 24 h solubility (mg/mL) FassIF
[10] = SGF (human fasted state simulated gastric fluid), simulated gastric fluid, SGF, read-out: 24 h solubility (mg/mL) SGF
[11] = water, read-out: 24 h solubility (mg/mL) Water

Chain of PRMT5 (O14744 whole entry): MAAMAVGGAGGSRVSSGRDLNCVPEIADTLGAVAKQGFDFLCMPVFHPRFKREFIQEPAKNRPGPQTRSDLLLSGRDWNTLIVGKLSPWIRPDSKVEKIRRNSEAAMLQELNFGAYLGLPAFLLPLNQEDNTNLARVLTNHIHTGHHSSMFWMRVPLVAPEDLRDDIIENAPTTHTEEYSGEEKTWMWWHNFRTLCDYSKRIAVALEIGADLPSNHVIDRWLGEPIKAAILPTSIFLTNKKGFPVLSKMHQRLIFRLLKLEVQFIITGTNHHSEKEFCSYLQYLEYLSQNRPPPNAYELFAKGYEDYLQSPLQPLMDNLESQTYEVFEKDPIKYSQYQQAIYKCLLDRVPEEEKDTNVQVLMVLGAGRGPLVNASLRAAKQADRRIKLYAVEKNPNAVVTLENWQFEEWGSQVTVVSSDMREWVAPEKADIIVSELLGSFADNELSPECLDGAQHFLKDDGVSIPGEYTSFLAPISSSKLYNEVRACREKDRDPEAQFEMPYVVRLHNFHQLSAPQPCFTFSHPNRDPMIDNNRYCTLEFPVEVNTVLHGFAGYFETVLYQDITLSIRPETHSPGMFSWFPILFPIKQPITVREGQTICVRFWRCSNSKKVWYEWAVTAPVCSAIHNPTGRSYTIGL
Chain of PRMT5 (Q9BQA1 whole entry partner): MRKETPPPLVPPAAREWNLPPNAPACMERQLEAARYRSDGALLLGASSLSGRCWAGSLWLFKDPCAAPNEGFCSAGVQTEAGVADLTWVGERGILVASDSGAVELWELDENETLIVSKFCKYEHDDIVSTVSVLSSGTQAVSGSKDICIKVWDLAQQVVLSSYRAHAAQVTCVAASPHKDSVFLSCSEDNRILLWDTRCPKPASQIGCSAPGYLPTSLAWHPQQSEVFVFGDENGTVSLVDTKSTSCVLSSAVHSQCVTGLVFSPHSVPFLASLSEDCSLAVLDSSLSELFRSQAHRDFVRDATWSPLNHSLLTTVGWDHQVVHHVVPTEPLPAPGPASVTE

CON=C(C)C(=O)N1CCC(Nc2cc(C(=O)NC[C@H](O)CN3CCc4ccccc4C3)ncn2)CC1.O=C(O)C[C@H](O)C(=O)O [Example 5]
Crystal form after storage (XRPD) [1]: Crystal Form V

CC(=O)N1CCC(Nc2cc(C(=O)NC[C@H](O)CN3CCc4ccccc4C3)ncn2)CC1 [GSK3326595, reference compound]
IC50 ([2]; Homo sapiens, MV4-11, 144 h, MTT on Day 6): 6.68 nM | Body Weight Change (%) ([3]; 100 mg/kg BID): −6.8% | d9 Tumor Volume (mm^3) ([3]; 100 mg/kg BID): 135 ± 43** mm^3 | d0 Tumor Volume (mm^3) [3]: 165.2 ± 23.1 mm^3 | RTV (d9) ([3]; 100 mg/kg BID): 0.8 ± 0.2 | Tumor Weight ([3]; 100 mg/kg BID): 0.1124 ± 0.0764 g | Tumor weight inhibition rate (%) ([3]; 100 mg/kg BID): 84.5% | Cmax [4]: 60.3 ng/mL | Tmax [4]: 2.67 h | AUC(0-t) [4]: 589 ng·h/mL

CON=C(C)C(=O)N1CCC(Nc2cc(C(=O)NC[C@H](O)CN3CCc4ccccc4C3)ncn2)CC1.O=C(O)C[C@H](O)C(=O)O [Example 4]
Crystal form after storage (XRPD) ([5]; 23° C./33% RH): Crystal Form IV | Crystal form after storage (XRPD) ([5]; 25° C./60% RH): Crystal Form IV | Crystal form under different humidity conditions (conclusion) [5]: unchanged

CON=C(C)C(=O)N1CCC(Nc2cc(C(=O)NC[C@H](O)CN3CCc4ccccc4C3)ncn2)CC1 [Compound of formula (A)]
IC50 (PRMT5; PRMT5 5 nM, [3H]-SAM, 25° C. 60 min, read-out: Enzymology (IC50)): 31 nM | Inhibitory activity at enzyme level compared with GSK3326595 (PRMT5; [8]): better inhibitory activities | Inhibitory activity at cell level compared with GSK3326595 [2, 8]: better inhibitory activities | Tumor-inhibitory activity in MV4-11 xenografts model ([3]; 100 mg/kg BID): significant tumor-inhibitory activity | Body Weight Change (%) ([3]; 100 mg/kg BID): −6.1% | d9 Tumor Volume (mm^3) ([3]; 100 mg/kg BID): 55.7 ± 19.7 ***## mm^3 | d0 Tumor Volume (mm^3) [3]: 165.3 ± 27.5 mm^3 | RTV (d9) ([3]; 100 mg/kg BID): 0.4 ± 0.1 | Tumor Weight ([3]; 100 mg/kg BID): 0.0648 ± 0.0267 g | Tumor weight inhibition rate (%) ([3]; 100 mg/kg BID): 91.1% | Absorption in rats compared with GSK3326595 [4]: better absorbed | Cmax [4]: 2370 ng/mL | Tmax [4]: 0.333 h | AUC(0-t) [4]: 4410 ng·h/mL | solubility at 24 h [6, 9]: 1.7 mg/mL | solubility at 24 h [6, 10]: > 4.4 mg/mL | solubility at 24 h [6, 11]: 0.39 mg/mL

CON=C(C)C(=O)N1CCC(Nc2cc(C(=O)NC[C@H](O)CN3CCc4ccccc4C3)ncn2)CC1.O=C(O)C(=O)O [Example 11]
solubility at 24 h [6, 9]: > 9.1 mg/mL | solubility at 24 h [6, 10]: > 9.2 mg/mL | solubility at 24 h [6, 11]: > 9.1 mg/mL | Solubility compared with the free base sample [6]: significantly higher

CON=C(C)C(=O)N1CCC(Nc2cc(C(=O)NC[C@H](O)CN3CCc4ccccc4C3)ncn2)CC1.O=C(O)C[C@H](O)C(=O)O [Example 7]
solubility at 24 h [6, 9]: > 4.7 mg/mL | solubility at 24 h [6, 10]: > 4.8 mg/mL | solubility at 24 h [6, 11]: > 4.9 mg/mL | Solubility compared with the free base sample [6]: significantly higher

CON=C(C)C(=O)N1CCC(Nc2cc(C(=O)NC[C@H](O)CN3CCc4ccccc4C3)ncn2)CC1.O=C(O)C[C@H](O)C(=O)O [Example 2]
Crystal form after storage (XRPD) ([5]; 23° C./33% RH): Crystal Form II | Crystal form after storage (XRPD) ([5]; 25° C./60% RH): Crystal Form II | Crystal form under different humidity conditions (conclusion) [5]: unchanged | Crystal form after storage (XRPD) [1]: Crystal Form II

CON=C(C)C(=O)N1CCC(Nc2cc(C(=O)NC[C@H](O)CN3CCc4ccccc4C3)ncn2)CC1.O=C(O)C[C@H](O)C(=O)O [Example 1]
Crystal Form after storage ([7]; 3 months, long-term stability): Crystal Form I | Purity after storage ([7]; 3 months, long-term stability): 99.32% | Initial purity ([7]; before long-term storage): 99.43%

CON=C(C)C(=O)N1CCC(Nc2cc(C(=O)NC[C@H](O)CN3CCc4ccccc4C3)ncn2)CC1.O=C(O)C[C@H](O)C(=O)O [Example 3]
Crystal form after storage (XRPD) ([5]; 23° C./33% RH): Crystal Form III | Crystal form after storage (XRPD) ([5]; 25° C./60% RH): Crystal Form III | Crystal form under different humidity conditions (conclusion) [5]: unchanged
